Measurements: patent US4032659A (priority 1975, dated 1977)
Values joined by “and” are separate entries in the source; they are usually repeats but may differ in a detail not shown here. Identical values can stand only once. Counter-ions that a name gives are not always drawn. Like-named read-outs stand apart in the source and are kept apart here.

How the values were obtained:
virus infections = test: Antiviral screening program, several viruses; details: mouse, in vivo
[1] = system: Influenza B Massachusetts virus; test: Chemoprophylaxis of Influenza B Massachusetts virus infection in mice; format: in vivo, mouse; details: oral
Protocol: The activity of four compounds on Influenza B Mass. was tested in mice.
A portion of a commercially available sample of amantadine was recrystallized from isopropanol. The activity of the material against Influenza B Mass. was tested for the sample as obtained, the recrystallized portion, and the mother liquor obtained from recrystallizing the portion.

Herpes virus = format: in vivo, mouse
Influenza PR 8 virus = test: Chemoprophylaxis of Influenza PR 8 virus infection in mice; format: in vivo, mouse; details: oral
[2] = system: Influenza Ann Arbor virus; test: Chemoprophylaxis of Influenza Ann Arbor (A1) virus infection in mice; format: in vivo, mouse; details: oral

**Q.** How did the “activity (in words)” value (virus infections) turn out when `NNc1nncc2ccccc12` [Hydralazine, hydralazine, reference compound] was run?
**A.** effective against Herpes virus

**Q.** N-hydroxyphthalamide was tested. Which “activity (in words)” value (virus infections) did it give?
**A.** active in the practice of this invention

**Q.** For `NC12CC3CC(CC(C3)C1)C2` [Recrystallized amantadine, amantadine, reference compound], which “No. animals surviving after 11 days” value ([1]; total dose 60 ng) is on record?
**A.** 4

**Q.** And the Survivors ([1]; total dose 60 ng)?
**A.** 2

**Q.** What about the “No. animals surviving after 11 days” value ([1]; total dose 600 ng) of the same molecule?
**A.** 3

**Q.** What about the Survivors ([1]; total dose 600 ng) of the same molecule?
**A.** 3

**Q.** And the “No. animals surviving after 11 days” value ([1]; total dose 6 μg)?
**A.** 5

**Q.** What about the Survivors ([1]; total dose 6 μg) of the same molecule?
**A.** 5

**Q.** And the “No. animals surviving after 11 days” value ([1]; total dose 60 μg)?
**A.** 5

**Q.** What about the Survivors ([1]; total dose 60 μg) of the same molecule?
**A.** 2

**Q.** And the “No. animals surviving after 11 days” value ([1]; total dose 600 μg)?
**A.** 3

**Q.** What about the Survivors ([1]; total dose 600 μg) of the same molecule?
**A.** 2

**Q.** And the “No. animals surviving after 11 days” value ([1]; total dose 6 mg)?
**A.** 6

**Q.** And the Survivors ([1]; total dose 6 mg)?
**A.** 4

**Q.** For `NNC(N)=O` [semicarbazide, hydrochloride], which “activity (in words)” value (virus infections) is on record?
**A.** effective against Influenza PR 8 virus, Vaccinia virus in the mouse tail, Herpes virus in eggs, Herpes virus in mice, Neurovaccinia, and Influenza Ann Arbor virus

**Q.** What about the “No. animals surviving when 19/20 controls are dead” value (Herpes virus; oral, total dose 5 μg) of the same molecule?
**A.** 4

**Q.** And the “No. animals surviving when 19/20 controls are dead” value (Herpes virus; oral, total dose .05 μg)?
**A.** 4

**Q.** Which results are given for `NC12CC3CC(CC(C3)C1)C2` [Commercial amantadine, amantadine, reference compound]?
**A.** No. animals surviving after 11 days ([1]; total dose 60 ng): 3; Survivors ([1]; total dose 60 ng): 0; No. animals surviving after 11 days ([1]; total dose 600 ng): 3; Survivors ([1]; total dose 600 ng): 3; No. animals surviving after 11 days ([1]; total dose 6 μg): 7; Survivors ([1]; total dose 6 μg): 5; No. animals surviving after 11 days ([1]; total dose 60 μg): 3; Survivors ([1]; total dose 60 μg): 2; No. animals surviving after 11 days ([1]; total dose 600 μg): 5; Survivors ([1]; total dose 600 μg): 5; No. animals surviving after 11 days ([1]; total dose 6 mg): 4; Survivors ([1]; total dose 6 mg): 2

**Q.** How did the “No. animals surviving after 7 days” value (Influenza PR 8 virus; total dose 5 μg) turn out when `NNC(=O)c1ccncc1` [Isoniazid, isoniazid, reference compound] was run?
**A.** 5

**Q.** And the Survivors (Influenza PR 8 virus; total dose 5 μg)?
**A.** 2

**Q.** And the “No. animals surviving after 7 days” value (Influenza PR 8 virus; total dose .0000005 μg)?
**A.** 1

**Q.** And the Survivors (Influenza PR 8 virus; total dose .0000005 μg)?
**A.** 0

**Q.** What about the “No. animals surviving after 7 days” value (Influenza PR 8 virus; total dose .000005 μg) of the same molecule?
**A.** 2

**Q.** And the Survivors (Influenza PR 8 virus; total dose .000005 μg)?
**A.** 0

**Q.** What about the “No. animals surviving after 7 days” value (Influenza PR 8 virus; total dose .00005 μg) of the same molecule?
**A.** 0

**Q.** And the Survivors (Influenza PR 8 virus; total dose .00005 μg)?
**A.** 0

**Q.** And the “No. animals surviving after 7 days” value (Influenza PR 8 virus; total dose .0005 μg)?
**A.** 0

**Q.** And the Survivors (Influenza PR 8 virus; total dose .0005 μg)?
**A.** 0

**Q.** What about the “No. animals surviving after 7 days” value (Influenza PR 8 virus; total dose .005 μg) of the same molecule?
**A.** 1

**Q.** What about the Survivors (Influenza PR 8 virus; total dose .005 μg) of the same molecule?
**A.** 1

**Q.** What about the “No. animals surviving after 7 days” value (Influenza PR 8 virus; total dose .05 μg) of the same molecule?
**A.** 2

**Q.** What about the Survivors (Influenza PR 8 virus; total dose .05 μg) of the same molecule?
**A.** 1

**Q.** What about the “No. animals surviving after 7 days” value (Influenza PR 8 virus; total dose .5 μg) of the same molecule?
**A.** 2

**Q.** And the Survivors (Influenza PR 8 virus; total dose .5 μg)?
**A.** 1

**Q.** What about the “No. animals surviving after 5 days” value ([1]; total dose .000005 μg) of the same molecule?
**A.** 3

**Q.** What about the “No. animals surviving when 100% controls are dead” value ([1]; total dose .000005 μg) of the same molecule?
**A.** 0

**Q.** What about the Survivors ([1]; total dose .000005 μg) of the same molecule?
**A.** 0

**Q.** What about the “No. animals surviving after 5 days” value ([1]; total dose .00005 μg) of the same molecule?
**A.** 2

**Q.** What about the “No. animals surviving when 100% controls are dead” value ([1]; total dose .00005 μg) of the same molecule?
**A.** 1

**Q.** And the Survivors ([1]; total dose .00005 μg)?
**A.** 0

**Q.** And the “No. animals surviving after 5 days” value ([1]; total dose .0005 μg)?
**A.** 3

**Q.** What about the “No. animals surviving when 100% controls are dead” value ([1]; total dose .0005 μg) of the same molecule?
**A.** 2

**Q.** What about the Survivors ([1]; total dose .0005 μg) of the same molecule?
**A.** 0

**Q.** And the “No. animals surviving after 5 days” value ([1]; total dose .005 μg)?
**A.** 5

**Q.** What about the “No. animals surviving when 100% controls are dead” value ([1]; total dose .005 μg) of the same molecule?
**A.** 1

**Q.** What about the Survivors ([1]; total dose .005 μg) of the same molecule?
**A.** 0

**Q.** And the “No. animals surviving after 5 days” value ([1]; total dose .05 μg)?
**A.** 3

**Q.** What about the “No. animals surviving when 100% controls are dead” value ([1]; total dose .05 μg) of the same molecule?
**A.** 1

**Q.** What about the Survivors ([1]; total dose .05 μg) of the same molecule?
**A.** 0

**Q.** And the “No. animals surviving after 5 days” value ([1]; total dose .5 μg)?
**A.** 3

**Q.** And the “No. animals surviving when 100% controls are dead” value ([1]; total dose .5 μg)?
**A.** 0

**Q.** And the Survivors ([1]; total dose .5 μg)?
**A.** 0

**Q.** And the Survivors ([2]; total dose .005 μg)?
**A.** 2

**Q.** And the Survivors ([2]; total dose .05 μg)?
**A.** 2 and 1

**Q.** What about the Survivors ([2]; total dose .5 μg) of the same molecule?
**A.** 2 and 1

**Q.** What about the “activity (in words)” value (virus infections) of the same molecule?
**A.** active against Influenza PR 8, Influenza Ann Arbor, Influenza B Mass., and Herpes virus

**Q.** And the “No. animals surviving after 6 days” value (Herpes virus; mouse, in vivo, po)?
**A.** 2 and 1

**Q.** And the Survivors (Herpes virus; oral, total dose .0000005 μg)?
**A.** 1

**Q.** What about the “No. animals surviving when 17/20 controls are dead” value (Herpes virus; oral, total dose .000005 μg) of the same molecule?
**A.** 3

**Q.** What about the “No. animals surviving after 6 days” value (Herpes virus; oral, total dose .00005 μg) of the same molecule?
**A.** 0

**Q.** And the “No. animals surviving when 17/20 controls are dead” value (Herpes virus; oral, total dose .00005 μg)?
**A.** 3

**Q.** What about the “No. animals surviving after 6 days” value (Herpes virus; oral, total dose .0005 μg) of the same molecule?
**A.** 3

**Q.** And the “No. animals surviving when 17/20 controls are dead” value (Herpes virus; oral, total dose .0005 μg)?
**A.** 0

**Q.** What about the “No. animals surviving when 17/20 controls are dead” value (Herpes virus; oral, total dose .005 μg) of the same molecule?
**A.** 2

**Q.** What about the “No. animals surviving when 17/20 controls are dead” value (Herpes virus; oral, total dose .05 μg) of the same molecule?
**A.** 1

**Q.** And the Survivors (Herpes virus; oral, total dose .05 μg)?
**A.** 1
